Measured values from patent US7511047B2, “Kinase inhibitors” (Cytopia Research Pty Ltd, priority 2002, dated 2009).

Legend:
Format in all cases: biochemical
Jak2 = target: T1, Jak2 (Homo sapiens, UniProt O60674); assay: JAK2 kinase domain assay (ELISA or Alphascreen); conditions: capacity to inhibit 50% of activity at 50 μM; read-out: Jak2 inhibitory activity
T1 construct: The kinase domain of humanJAK2 was amplified from U937mRNA; His tag (from pFastBac HTc vector) (N); made in house; host or cells: baculovirus; Sf9 insect cells for virus, High Five cells for large-scale production
Description: (§1) For screening purposes, compounds were diluted in 96 well plates at a concentration of 20 μM. Plates were warmed at 37° C. for 30 minutes before assay.
(§2) • JAK1 PCR products were cloned into the pFastBac HTb expression vector (Gibco) via the Xho I and Kpn I sites. The JAK1 plasmid was then transformed into competent DH10Bac cells (Gibco), and the recombinant baculovirus produced prepared for transfection into Sf9 insect cells. JAK2 • The kinase domain of humanJAK2 was amplified from U937mRNA using the polymerase chain reaction with the following primers:
• JAK2 PCR products were cloned into the pFastBac HTc expression vector (Gibco) via the Sal I and Not I sites. The JAK2 plasmid was then transformed into competent DH10Bac cells (Gibco), and the recombinant baculovirus produced prepared for transfection into Sf9 insect cells. JAK3 • The kinase domain of humanJAK3 was amplified from U937mRNA using the polymerase chain reaction with the following primers: […]
(§3) Baculovirus preparations from each of the JAK family members were infected into five litres of High Five cells (Invitrogen) grown in High Five serum free medium (Invitrogen) to a cell density of approximately 1-2×10^6 cells/ml. Cells are infected with virus at a MOI of 0.8-3.0. Cells were harvested and lysed. JAK kinase domains were purified by affinity chromatography on a Probond (Invitrogen) nickel chelate affinity column.
(§4) Kinase assays were performed either in a 96 well capture-based ELISA assay or in 384 well Optiplates (Packard) using an Alphascreen Protein Tyrosine Kinase kit. In either casse using approximately 1.5 μg of affinity purified PTK domain in the presence of 50 mM HEPES, pH 7.5, 10 mM MgCl2, 150 mM NaCl and 10 μM-1 mM ATP. The biotinylated substrate biotin-EGPWLEEEEEAYGWMDF-NH2 (SEQ ID NO:9) (final concentration 5 μM) was used as substrate. In the ELISA assay tyrosine phosphorylation was quantitated following transfer to an avidin coated ELISA plate using peroxidase-linked anti-phospho-tyrosine antibody PY20. In the Alphascreen assay, Alphascreen phosphotyrosine acceptor beads followed by streptavidin donor beads were added under subdued light. The ELISA plates were read on a BMG Fluorostar, the Alphascreen plates were read on a Packard Fusion Alpha. Inhibitors were added to the assays fifteen minutes prior to the addition of ATP. Inhibitors were added in aqueous DMSO, with DMSO concentrations never exceeding 1%.

Jak3 = target: T2, Jak3 (Homo sapiens, UniProt P52333); assay: JAK3 kinase domain assay (ELISA or Alphascreen); conditions: capacity to inhibit 50% of activity at 50 μM; read-out: Jak3 inhibitory activity
T2 construct: The kinase domain of humanJAK3 was amplified from U937mRNA; His tag (from pFastBac HTb vector) (N); made in house; host or cells: baculovirus; Sf9 insect cells for virus, High Five cells for large-scale production
Description: as §1
• JAK2 PCR products were cloned into the pFastBac HTc expression vector (Gibco) via the Sal I and Not I sites. The JAK2 plasmid was then transformed into competent DH10Bac cells (Gibco), and the recombinant baculovirus produced prepared for transfection into Sf9 insect cells. JAK3 • The kinase domain of humanJAK3 was amplified from U937mRNA using the polymerase chain reaction with the following primers:
as §2, with “JAK3” for “JAK1”, “TYK2” for “JAK2”, “humanTYK2” for “humanJAK2”, “A549 mRNA” for “U937mRNA”, “primers: […]” for “primers:”
as §3, §4

abl = target: T3, abl (Homo sapiens, UniProt P00519); assay: abl kinase assay (ELISA or Alphascreen); conditions: capacity to inhibit 50% of activity at 50 μM; read-out: abl inhibitory activity
T3 sequence (P00519 242-493 limits assumed): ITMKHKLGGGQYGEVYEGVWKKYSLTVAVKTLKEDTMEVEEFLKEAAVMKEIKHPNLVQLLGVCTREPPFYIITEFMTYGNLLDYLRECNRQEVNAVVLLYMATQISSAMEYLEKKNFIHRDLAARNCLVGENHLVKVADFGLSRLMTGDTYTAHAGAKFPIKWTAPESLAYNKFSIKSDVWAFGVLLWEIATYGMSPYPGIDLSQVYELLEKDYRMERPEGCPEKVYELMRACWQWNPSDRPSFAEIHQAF
Description: as §1, §4

hck = hck (Homo sapiens, UniProt P08631); assay: hck kinase assay (ELISA or Alphascreen); conditions: capacity to inhibit 50% of activity at 50 μM; read-out: hck inhibitory activity
Description: as §1, §4

kdr = kdr (Homo sapiens, UniProt P35968); assay: kdr kinase assay (ELISA or Alphascreen); conditions: capacity to inhibit 50% of activity at 50 μM; read-out: kdr inhibitory activity
Description: as §1, §4

Chain of hck (P08631 262-515 limits assumed, species assumed): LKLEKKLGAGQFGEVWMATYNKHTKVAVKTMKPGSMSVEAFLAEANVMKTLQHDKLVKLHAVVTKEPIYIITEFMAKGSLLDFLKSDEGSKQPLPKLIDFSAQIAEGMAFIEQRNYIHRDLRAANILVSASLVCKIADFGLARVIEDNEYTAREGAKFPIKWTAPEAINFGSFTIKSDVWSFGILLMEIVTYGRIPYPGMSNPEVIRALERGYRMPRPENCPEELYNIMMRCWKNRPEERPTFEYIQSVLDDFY
Chain of kdr (P35968 834-1162 limits assumed, species assumed): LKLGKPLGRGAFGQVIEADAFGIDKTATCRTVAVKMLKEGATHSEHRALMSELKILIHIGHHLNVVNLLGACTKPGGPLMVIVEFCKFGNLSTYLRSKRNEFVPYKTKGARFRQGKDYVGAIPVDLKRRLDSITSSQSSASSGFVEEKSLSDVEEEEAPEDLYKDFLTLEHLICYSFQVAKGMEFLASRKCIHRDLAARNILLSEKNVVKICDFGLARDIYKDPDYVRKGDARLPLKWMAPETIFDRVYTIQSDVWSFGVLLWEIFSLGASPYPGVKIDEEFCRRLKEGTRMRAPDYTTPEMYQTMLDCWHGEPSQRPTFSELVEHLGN
T1 sequence (O60674 849-1124 limits assumed): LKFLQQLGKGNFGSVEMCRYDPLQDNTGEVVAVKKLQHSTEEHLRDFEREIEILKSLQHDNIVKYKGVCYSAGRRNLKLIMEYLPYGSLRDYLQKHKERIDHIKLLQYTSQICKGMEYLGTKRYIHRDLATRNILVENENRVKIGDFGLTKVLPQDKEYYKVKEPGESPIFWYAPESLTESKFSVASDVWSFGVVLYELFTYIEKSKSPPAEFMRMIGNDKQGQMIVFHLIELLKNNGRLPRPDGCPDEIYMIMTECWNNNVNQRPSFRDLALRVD
T2 sequence (P52333 822-1111 limits assumed): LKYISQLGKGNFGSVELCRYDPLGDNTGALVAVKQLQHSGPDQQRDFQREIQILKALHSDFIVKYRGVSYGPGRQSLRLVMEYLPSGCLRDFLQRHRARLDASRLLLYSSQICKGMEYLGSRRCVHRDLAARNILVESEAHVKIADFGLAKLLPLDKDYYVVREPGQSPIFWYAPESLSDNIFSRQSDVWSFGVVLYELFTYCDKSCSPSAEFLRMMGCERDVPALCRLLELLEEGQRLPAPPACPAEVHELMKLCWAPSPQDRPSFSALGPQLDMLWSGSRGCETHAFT

Row | Structure (SMILES) | inhibition at 50 µM (Jak2) [%] | inhibition at 50 µM (Jak3) [%] | inhibition at 50 µM (abl) [%] | inhibition at 50 µM (hck) [%] | inhibition at 50 µM (kdr) [%]
1 | c1ccc(CNc2cncc(-n3cnc4ccccc43)n2)cc1 | > 50 | > 50 | > 50 | > 50 | < 50
2 | Fc1ccc(CNc2cncc(-n3cnc4ccccc43)n2)cc1 | > 50 | < 50 | > 50 | > 50 | < 50
3 | C[C@@H](Nc1cncc(-n2cnc3ncccc32)n1)c1ccccc1 | < 50 | < 50 | < 50 | < 50 | < 50
4 | CC(=O)Nc1ccc2c(c1)ncn2-c1cncc(N[C@@H](C)c2ccccc2)n1 | < 50 | < 50 | > 50 | > 50 | > 50
5 | C[C@H](Nc1cncc(-n2cnc3ccc(NC(=O)c4cnccn4)cc32)n1)c1ccccc1 | > 50 | < 50 | < 50 | > 50 | > 50
6 | C[C@H](Nc1cncc(-n2cnc3cc(CN4CCN(C)CC4)ccc32)n1)c1ccccc1 | < 50 | < 50 | < 50 | > 50 | > 50
7 | C[C@H](Nc1cncc(-n2cnc3cc(CO)ccc32)n1)c1ccccc1 | > 50 | < 50 | < 50 | > 50 | > 50
8 | C[C@H](Nc1cncc(-n2cnc3ccc(CO)cc32)n1)c1ccccc1 | > 50 | > 50 | < 50 | > 50 | > 50
9 | C[C@H](Nc1cncc(-n2cnc3cc(-c4cccnc4)ccc32)n1)c1ccccc1 | > 50 | > 50 | > 50 | > 50 | > 50
10 | C[C@H](Nc1cncc(-n2cnc3cc(C(=O)NCCCN4CCOCC4)ccc32)n1)c1ccccc1 | > 50 | > 50 | > 50 | > 50 | > 50
11 | CC(Nc1cncc(-n2cnc3ccccc32)n1)c1ccc(F)cc1 (stereo not shown) | > 50 | < 50 | > 50 | > 50 | > 50
12 | C[C@H](Nc1cncc(-n2cnc3cc(Br)ccc32)n1)c1ccccc1 | > 50 | > 50 | > 50 | > 50 | > 50
13 | C[C@H](Nc1cncc(-n2cnc3ccc(C(=O)NCCCN4CCOCC4)cc32)n1)c1ccccc1 | > 50 | < 50 | > 50 | > 50 | > 50
14 | C[C@H](Nc1cncc(-n2cnc3cc(NC(=O)C4CCCNC4)ccc32)n1)c1ccccc1 (stereo partly shown) | > 50 | > 50 | > 50 | > 50 | > 50
15 | CC(Nc1cncc(-n2cnc3ccc(CN4CCN(C)CC4)cc32)n1)c1ccc(F)cc1 (stereo not shown) | < 50 | < 50 | < 50 | > 50 | > 50

The remaining lines, values ahead:

Row | inhibition at 50 µM (Jak2) [%] | inhibition at 50 µM (Jak3) [%] | inhibition at 50 µM (abl) [%] | inhibition at 50 µM (hck) [%] | inhibition at 50 µM (kdr) [%] | Structure (SMILES)
16 | < 50 | < 50 | > 50 | > 50 | > 50 | C[C@H](Nc1cncc(-n2cnc3ccc(NC(=O)c4ccccc4)cc32)n1)c1ccccc1
17 | < 50 | < 50 | > 50 | > 50 | > 50 | C[C@H](Nc1cncc(-n2cnc3cc(NC(=O)c4ccccc4)ccc32)n1)c1ccccc1
18 | > 50 | > 50 | > 50 | > 50 | > 50 | C[C@H](Nc1cncc(-n2cnc3cc(NCc4cccnc4)ccc32)n1)c1ccccc1
19 | > 50 | > 50 | > 50 | > 50 | > 50 | C[C@H](Nc1cncc(-n2cnc3ccncc32)n1)c1ccccc1
20 | > 50 | < 50 | > 50 | > 50 | > 50 | C[C@H](Nc1cncc(-n2cnc3cc(C(=O)NCCN(C)C)ccc32)n1)c1ccccc1
21 | > 50 | < 50 | > 50 | > 50 | > 50 | C[C@H](Nc1cncc(-n2cnc3cc(NC(=O)[C@@H]4CCCN4C(=O)OC(C)(C)C)ccc32)n1)c1ccccc1
22 | > 50 | > 50 | > 50 | > 50 | > 50 | C[C@H](Nc1cncc(-n2cnc3cnccc32)n1)c1ccccc1
23 | > 50 | > 50 | < 50 | > 50 | > 50 | C[C@H](Nc1cncc(-n2cnc3cc(NC(=O)C4CCCN4)ccc32)n1)c1ccccc1 (stereo partly shown)
24 | > 50 | < 50 | > 50 | > 50 | > 50 | C[C@H](Nc1cncc(-n2cnc3cc(C(=O)NCCCn4ccnc4)ccc32)n1)c1ccccc1
25 | > 50 | > 50 | > 50 | > 50 | > 50 | CC(Nc1cncc(-n2cnc3ccccc32)n1)c1cccnc1 (stereo not shown)
26 | > 50 | > 50 | < 50 | < 50 | > 50 | C[C@H](Nc1cncc(-n2cnc3ccccc32)n1)c1ccc(-c2cccnc2)cc1
27 | > 50 | < 50 | > 50 | > 50 | > 50 | C[C@H](Nc1cncc(-n2cnc3cc(-c4ccncc4)ccc32)n1)c1ccccc1
28 | > 50 | > 50 | < 50 | < 50 | > 50 | C[C@H](Nc1cncc(-n2cnc3cc(NS(=O)(=O)c4ccccc4)ccc32)n1)c1ccccc1
29 | > 50 | > 50 | > 50 | > 50 | > 50 | C[C@H](Nc1cncc(-n2cnc3cc(C(=O)NCCCCN4CCOCC4)ccc32)n1)c1ccccc1
